According to patent publication US9938250B2, “Antifibrotic effects of oxetanyl sulfoxides” (University of Pittsburgh—Of the Commonwealth System of …, priority 2015, dated 2018):
“Also recorded” adds a separate entry of the source.

Legend:
[1] = tested on: primary human fibroblasts; assay: TGFβ-induced fibrotic markers in primary human lung fibroblasts, immunoblotting; type: cell-based
Procedure: All tissues were obtained under a protocol approved by the Institutional Review Board of the University of Pittsburgh and with written consent. Primary human fibroblasts were cultured from the lung tissues of normal donors and patients undergoing lung transplantation. Fibroblasts were grown in Dulbecco's modified Eagle's medium (DMEM) supplemented with 10% fetal bovine serum (FBS), 100 U/mL penicillin, […] streptomycin and […] amphotericin B, and maintained at 37° C. in 5% CO2 humidified incubator. Three strains of normal primary human fibroblasts were plated on 6-well plates at a seeding density of 2.5×10^5 cells per well. Cells were serum starved for 6-16 h and treated with vehicle, TGFβ (10 ng/mL), MMS-350 (0.5 mg/mL), or TGFβ+MMS-350. Experiments using KRL507-031 were performed similarly. The cell lysates and culture supernatants were harvested 72 h after treatment and analyzed by immunoblotting.
Fibroblasts were rinsed with 1× PBS, scraped into 100 μL of 2×-sodium dodecyl sulfate (SDS) sample buffer, and boiled for 5 min. Equal protein amounts of cell lysates or supernatants were resolved on 10-12% sodium dodecyl sulfate polyacrylamide (SDS-PAGE) gels. Proteins were transferred to 0.2 μm nitrocellulose membranes (Whatman, Germany) and blocked with 5% nonfat dry milk in TBS-Tween 20 for 1 h at room temperature. Membranes were incubated with primary antibodies overnight at 4° C. followed by horseradish peroxidase-conjugated secondary antibodies for 1 h at room temperature. Signals were detected with enhanced chemiluminescence (Perkin Elmer Life Sciences, Inc., Boston, Mass.) and imaged with the FluorChem E digital imaging system from Protein Simple (Santa Clara, Calif.). Results were analyzed using the accompanying software Alphaview.

[2] = discussion, comparison of DMSO with MMS-350; cited from earlier work
[3] = Aqueous solubility, statement only; type: physicochemical
[4] = tested on: endothelial and alveolar type II cells; settings: cells cultured from lung tissues of mice following thoracic irradiation; Kalash et al In vivo 2013; cited from earlier work
C57BL/6J mice = assay: Bleomycin-induced pulmonary fibrosis in mice; type: in vivo
Procedure: Pulmonary fibrosis was induced in male 6- to 8-week-old C57BL/6J mice by intratracheal administration of 1 mg/kg of Bleomycin (Enzo) in a total volume of 50 uL. Mice were orally administered either 200 uL of PBS or MMS-350 (2%) on a daily basis and lungs were harvested after 5 and 14 days. Right lungs were fixed in 10% neutralized formalin and paraffin embedded. Left lungs were frozen for hydroxyproline assay and total RNA extraction.
Six-micrometer sections of paraffin-embedded mouse lung tissues were stained with H&E and images were taken on an Olympus Provis III microscope (Olympus America Inc.) with identical settings.
Hydroxyproline assay. The hydroxyproline content of mouse lung tissues obtained on day 14 was measured as described (41) and adjusted by lung weight.
Frozen mouse lung tissues obtained on day 5 were placed in 1.5 mL of RNase free Red Bead Lysis Kit tubes (Next Advance) containing 500 uL of TRIzol® Reagent (Life Technologies) and homogenized using BBX24 Bullet Blender® (Next Advance). Total RNA was extracted and purified with RNeasy Mini Kit (Qiagen). Reverse transcription was performed with SuperScript II (Invitrogen) followed by quantitative polymerase chain reaction (PCR) amplification with the TaqMan method (ABI Prism 7300; Applied Biosystems). Premixed PCR primers and TaqMan probes for mouse collagen 1A2 and GAPDH were obtained from Applied Biosystems. Gene expression levels were normalized to GAPDH and compared with the 2^−ΔΔCt method.

experimental mice = settings: cited from earlier work
[5] = TGFβ 10 ng/mL + MMS-350 0.5 mg/mL vs TGFβ1 alone, 72 h

Structure (SMILES)	CTGF secreted protein [1, 5]	IGFBP3 (BP3) secreted protein [1, 5]	collagen 1α1 (Col1) protein [1, 5]	fibronectin (FN) protein [1, 5]	α-SMA protein (marker of fibroblast activation) [1, 5]	anti-fibrotic activity on delayed addition ([1]; compound added 30 min to 6 h after TGFβ)	log P (lipophilicity) [2]	aqueous solubility [3]	pro-fibrotic gene expression [4]	Collagen α2I mRNA levels in lung (C57BL/6J mice; MMS-350 (2%) oral daily, day 5)	hydroxyproline levels in lung (C57BL/6J mice; MMS-350 (2%) oral daily, day 14)	lung fibrosis, histology (H&E) (C57BL/6J mice; bleomycin 1 mg/kg intratracheal, MMS-350 (2%) 200 uL oral daily, day 14)	overall survival (C57BL/6J mice; bleomycin + MMS-350, bleomycin-treated mice 62.5%)	toxicity (C57BL/6J mice; given orally)	weight loss (C57BL/6J mice; vs mice treated with bleomycin alone, data not shown)	mitigation of ionizing irradiation (experimental mice; Goff et al 2013)	radiation-induced pulmonary fibrosis (experimental mice; Kalash et al Radiat Res 2013)	survival of irradiated mice (experimental mice; Kalash et al Radiat Res 2013)
CC1(C[S+]([O-])CC2(C)COC2)COC1 [MMS-350, 3,3′-Sulfinylbis(methylene)bis(3-methyloxetane)]	significantly decreased	significantly decreased	significantly decreased	significantly decreased	significantly decreased	profound anti-fibrotic activity	−0.7	exquisite aqueous solubility; also recorded: exceptionally high aqueous solubility	reduce pro-fibrotic gene expression	reduced	significant reduction	ameliorated fibrosis histologically	87.5%	no toxicity	less weight loss	mitigator of ionizing irradiation	ameliorate radiation-induced pulmonary fibrosis	increase survival
C[S+](C)[O-] [DMSO, dimethyl sulfoxide, reference compound]							-1.4											
